Data from patent publication US6365614B1, “Fungicides mixtures” (priority 1997, dated 2002).

System: Plasmopara viticola
Experiment: Curative action against Plasmopara viticola on potted grapevines
Assay type: in vivo, Plasmopara viticola on grapevines cv. Müller-Thurgau
Details: grapevine leaves, untreated control 73% infection
Protocol: Curative action against Plasmopara viticola
Leaves of potted grapevines cv. “Müller-Thurgau” were inoculated with an aqueous zoospore suspension of Plasmopara viticola. The grapevines were subsequently kept in a water-vapor-saturated chamber at 22-24° C. for 48 hours. They were then removed from the chambers and, after they had dried, sprayed to run off point with an aqueous preparation of active compound which had been prepared from a stock solution comprising 10% of active compound, 63% of cyclohexanone and 27% of emulsifier. After the spray coating had dried on, the plants were cultivated for another 5 days in the greenhouse at 20-30° C. After this time, the plants were returned into a humid chamber for 16 hours to accelerate the eruption of sporangiophore. The extent to which the disease had developed on the undersides of the leaves was then determined visually in %.
Evaluation is carried out by determining the infected leaf areas in percent. These percentages are converted into efficacies. The expected efficacies of the active compound mixtures are determined using Colby's formula [R. S. Colby, Weeds 15, 20-22 (1967)] and compared with the observed efficacies. Colby's formula: […]
expected efficacy, expressed in % of the untreated control, when using the mixture of the active compounds A, B and C at the concentrations a, b and c x efficacy, expressed in % of the untreated control, when using active compound A at a concentration of a y efficacy, expressed in % of the untreated control, when using active compound B at a concentration of b z efficacy, expressed in % of the untreated control, when using active compound C at a concentration of c The efficacy(E) is calculated as follows using Abbot's formula: […]
α corresponds to the fungal infection of the treated plants in % and β corresponds to the fungal infection of the untreated (control) plants in % An efficacy of 0 means that the infection level of the treated plants corresponds to that of the untreated control plants; an efficacy of 100 means that the treated plants were not infected.

[1] = 1 ppm active compound in the spray liquor

SMILES	Efficacy in % of the untreated control [1] [%]	Efficacy in % of the untreated control (4 ppm active compound in the spray liquor) [%]	Efficacy in % of the untreated control (16 ppm active compound in the spray liquor) [%]
COCC(=O)N(c1c(C)cccc1C)C(C)C(=O)OC (stereo not shown) [II.3, metalaxyl]	59	–	–
Cc1cccc(C)c1N(C(=O)CCl)C1CCOC1=O (stereo not shown) [II.2, Ofurace]	0	73	73
